Read-outs that look alike come from different tables or passages of the source.
Experiments:
[1] = target: Ba/F3 cells containing Ros1 with a mutation at the gatekeeper residue (L2026M) (Homo sapiens, UniProt P08922, L2026M, cells depend on it, form not given); experiment: Ba/F3-Ros1 cell proliferation assay, L2026M gatekeeper mutant; type: cell-based, murine; conditions: without IL-3
How it was run: (§1)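 20000 Ba/F3-Ros1 cells/well (WT, L2026M, G2032R), RPMI-1640 phenol red free + 10% FBS + 2 mM Gln, cpds from DMSO; 24 h, 37 °C, 5% CO2. Alamar Blue 4 h, RFU ex540/em590.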

[2] = tested on: HCC78 non-small cell lung cancer cells; experiment: HCC78 cell proliferation assay; type: cell-based; conditions: for EC50: Homo sapiens, HCC78, 96 h, read-out: HCC-78 PROL pEC50 (converted)
Protocol: HCC78 Cell Proliferation Assay
Approximately 1000 HCC78 non-small cell lung cancer cells in 180 μl of cell culture medium (RPMI-1640, 10% FBS, 2 mM L-Glutamine, 10 mM Hepes, 1 mM sodium pyruvate, 4.5 g/L glucose, 1.5 g/L sodium bicarbonate, 25 μg/ml Gentamycin) were seeded in each well of a 96-well polystyrene, tissue-culture treated plate and incubated at 37° C. and 5% CO2. After 24 hours, compounds were diluted in cell culture medium from which 20 μl was added to the wells containing cells and incubated for 4 days at 37° C. and 5% CO2. A 5 mg/ml solution of the tetrazolium dye MTT was prepared in PBS (phosphate-buffered saline) and 25 μl was added to each well. After 2 hours the medium was removed and replaced by 125 μL of 4/1 DMSO/glycine buffer (0.1M glycine, 0.1M NaCl, pH 10.5) before absorbance was determined at 538 nm.

Ros1 enzyme = target: T1, Ros1 enzyme (Homo sapiens, UniProt P08922); experiment: Ros1 enzymatic assay; type: biochemical; conditions: Ros1 enzymatic assay; for IC50: read-out: ROS1 pIC50 (converted)
T1 construct: 0.5 μg/ml Ros1 enzyme
T1 sequence (P08922 28-2347): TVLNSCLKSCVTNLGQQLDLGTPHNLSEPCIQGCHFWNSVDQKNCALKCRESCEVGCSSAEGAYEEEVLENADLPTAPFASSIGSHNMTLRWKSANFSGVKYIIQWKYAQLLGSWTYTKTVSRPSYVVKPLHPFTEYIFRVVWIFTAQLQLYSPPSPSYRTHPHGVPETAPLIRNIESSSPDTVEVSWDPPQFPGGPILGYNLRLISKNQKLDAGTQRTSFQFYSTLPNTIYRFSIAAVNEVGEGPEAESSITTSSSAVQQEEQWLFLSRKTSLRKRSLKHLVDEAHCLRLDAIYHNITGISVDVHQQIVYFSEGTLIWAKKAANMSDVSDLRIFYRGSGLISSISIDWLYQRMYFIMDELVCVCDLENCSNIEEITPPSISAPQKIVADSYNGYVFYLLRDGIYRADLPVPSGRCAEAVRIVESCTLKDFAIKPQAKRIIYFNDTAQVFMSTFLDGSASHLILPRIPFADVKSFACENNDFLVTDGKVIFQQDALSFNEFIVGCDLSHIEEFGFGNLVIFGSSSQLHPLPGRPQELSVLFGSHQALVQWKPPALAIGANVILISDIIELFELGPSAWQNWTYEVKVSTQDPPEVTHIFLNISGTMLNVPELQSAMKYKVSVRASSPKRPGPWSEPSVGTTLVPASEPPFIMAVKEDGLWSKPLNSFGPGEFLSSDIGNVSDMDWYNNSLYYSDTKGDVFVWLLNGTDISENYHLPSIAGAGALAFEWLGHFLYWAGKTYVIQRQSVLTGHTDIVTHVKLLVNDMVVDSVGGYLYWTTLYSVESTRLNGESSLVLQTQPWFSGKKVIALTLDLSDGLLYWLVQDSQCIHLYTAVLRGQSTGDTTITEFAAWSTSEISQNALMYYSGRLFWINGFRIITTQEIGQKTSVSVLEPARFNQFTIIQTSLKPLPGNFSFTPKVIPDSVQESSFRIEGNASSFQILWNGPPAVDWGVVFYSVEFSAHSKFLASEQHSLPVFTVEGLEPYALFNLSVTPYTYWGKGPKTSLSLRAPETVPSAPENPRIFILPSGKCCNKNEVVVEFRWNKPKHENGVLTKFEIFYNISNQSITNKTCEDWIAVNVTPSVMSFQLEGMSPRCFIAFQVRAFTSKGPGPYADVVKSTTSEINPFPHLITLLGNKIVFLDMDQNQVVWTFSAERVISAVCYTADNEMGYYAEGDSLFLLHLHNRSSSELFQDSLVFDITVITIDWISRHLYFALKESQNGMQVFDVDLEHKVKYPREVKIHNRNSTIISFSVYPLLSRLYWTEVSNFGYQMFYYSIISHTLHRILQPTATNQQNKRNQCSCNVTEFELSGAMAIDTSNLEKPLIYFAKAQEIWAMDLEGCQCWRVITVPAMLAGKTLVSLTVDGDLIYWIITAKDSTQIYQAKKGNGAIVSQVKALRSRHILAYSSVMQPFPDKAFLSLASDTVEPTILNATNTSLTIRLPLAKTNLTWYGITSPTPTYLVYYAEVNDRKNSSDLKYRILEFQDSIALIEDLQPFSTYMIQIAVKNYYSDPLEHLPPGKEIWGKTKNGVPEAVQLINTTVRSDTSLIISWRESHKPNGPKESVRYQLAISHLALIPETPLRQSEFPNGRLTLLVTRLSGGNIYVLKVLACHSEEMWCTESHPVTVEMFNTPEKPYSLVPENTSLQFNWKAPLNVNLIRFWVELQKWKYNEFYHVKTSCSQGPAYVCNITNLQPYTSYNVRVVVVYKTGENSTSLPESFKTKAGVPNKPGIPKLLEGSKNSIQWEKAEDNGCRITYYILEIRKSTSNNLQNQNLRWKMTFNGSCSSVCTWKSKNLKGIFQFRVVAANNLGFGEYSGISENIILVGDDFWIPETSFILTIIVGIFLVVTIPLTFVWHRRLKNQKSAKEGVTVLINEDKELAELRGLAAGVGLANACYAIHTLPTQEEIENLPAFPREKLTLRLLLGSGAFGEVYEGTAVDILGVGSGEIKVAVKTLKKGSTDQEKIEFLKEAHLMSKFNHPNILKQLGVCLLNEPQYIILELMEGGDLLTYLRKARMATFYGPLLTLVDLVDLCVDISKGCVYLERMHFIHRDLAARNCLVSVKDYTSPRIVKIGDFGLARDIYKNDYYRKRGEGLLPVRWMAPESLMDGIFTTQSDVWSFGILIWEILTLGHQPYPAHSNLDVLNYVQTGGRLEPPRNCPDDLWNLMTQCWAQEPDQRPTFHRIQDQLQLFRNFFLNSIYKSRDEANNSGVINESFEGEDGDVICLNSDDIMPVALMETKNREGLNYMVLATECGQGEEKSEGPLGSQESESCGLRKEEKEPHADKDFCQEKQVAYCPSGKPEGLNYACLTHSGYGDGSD
How it was run: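 Signal came from streptavidin-coupled imaging beads binding radiolabelled IRS-Tide after a 120 min room-temperature kinase reaction, quenched with 5 mM EDTA and 50 μM cold ATP. Enzyme mix held Ros1 at 0.5 μg/ml; substrate mix held 6 μg/ml IRS-Tide and 20 μM ATP.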

[3] = target: T2, Ba/F3 cells containing Ros1 wild-type protein (Homo sapiens, UniProt P08922, cells depend on it, form not given); experiment: Ba/F3-Ros1 cell proliferation assay, wild-type Ros1; type: cell-based, murine; conditions: without IL-3
T2 construct: The background only speaks of 'a number of different unrelated proteins' and names SLC34A2-ROS1 for HCC78 cells
T2 sequence (P08922 whole entry, stated change not applied): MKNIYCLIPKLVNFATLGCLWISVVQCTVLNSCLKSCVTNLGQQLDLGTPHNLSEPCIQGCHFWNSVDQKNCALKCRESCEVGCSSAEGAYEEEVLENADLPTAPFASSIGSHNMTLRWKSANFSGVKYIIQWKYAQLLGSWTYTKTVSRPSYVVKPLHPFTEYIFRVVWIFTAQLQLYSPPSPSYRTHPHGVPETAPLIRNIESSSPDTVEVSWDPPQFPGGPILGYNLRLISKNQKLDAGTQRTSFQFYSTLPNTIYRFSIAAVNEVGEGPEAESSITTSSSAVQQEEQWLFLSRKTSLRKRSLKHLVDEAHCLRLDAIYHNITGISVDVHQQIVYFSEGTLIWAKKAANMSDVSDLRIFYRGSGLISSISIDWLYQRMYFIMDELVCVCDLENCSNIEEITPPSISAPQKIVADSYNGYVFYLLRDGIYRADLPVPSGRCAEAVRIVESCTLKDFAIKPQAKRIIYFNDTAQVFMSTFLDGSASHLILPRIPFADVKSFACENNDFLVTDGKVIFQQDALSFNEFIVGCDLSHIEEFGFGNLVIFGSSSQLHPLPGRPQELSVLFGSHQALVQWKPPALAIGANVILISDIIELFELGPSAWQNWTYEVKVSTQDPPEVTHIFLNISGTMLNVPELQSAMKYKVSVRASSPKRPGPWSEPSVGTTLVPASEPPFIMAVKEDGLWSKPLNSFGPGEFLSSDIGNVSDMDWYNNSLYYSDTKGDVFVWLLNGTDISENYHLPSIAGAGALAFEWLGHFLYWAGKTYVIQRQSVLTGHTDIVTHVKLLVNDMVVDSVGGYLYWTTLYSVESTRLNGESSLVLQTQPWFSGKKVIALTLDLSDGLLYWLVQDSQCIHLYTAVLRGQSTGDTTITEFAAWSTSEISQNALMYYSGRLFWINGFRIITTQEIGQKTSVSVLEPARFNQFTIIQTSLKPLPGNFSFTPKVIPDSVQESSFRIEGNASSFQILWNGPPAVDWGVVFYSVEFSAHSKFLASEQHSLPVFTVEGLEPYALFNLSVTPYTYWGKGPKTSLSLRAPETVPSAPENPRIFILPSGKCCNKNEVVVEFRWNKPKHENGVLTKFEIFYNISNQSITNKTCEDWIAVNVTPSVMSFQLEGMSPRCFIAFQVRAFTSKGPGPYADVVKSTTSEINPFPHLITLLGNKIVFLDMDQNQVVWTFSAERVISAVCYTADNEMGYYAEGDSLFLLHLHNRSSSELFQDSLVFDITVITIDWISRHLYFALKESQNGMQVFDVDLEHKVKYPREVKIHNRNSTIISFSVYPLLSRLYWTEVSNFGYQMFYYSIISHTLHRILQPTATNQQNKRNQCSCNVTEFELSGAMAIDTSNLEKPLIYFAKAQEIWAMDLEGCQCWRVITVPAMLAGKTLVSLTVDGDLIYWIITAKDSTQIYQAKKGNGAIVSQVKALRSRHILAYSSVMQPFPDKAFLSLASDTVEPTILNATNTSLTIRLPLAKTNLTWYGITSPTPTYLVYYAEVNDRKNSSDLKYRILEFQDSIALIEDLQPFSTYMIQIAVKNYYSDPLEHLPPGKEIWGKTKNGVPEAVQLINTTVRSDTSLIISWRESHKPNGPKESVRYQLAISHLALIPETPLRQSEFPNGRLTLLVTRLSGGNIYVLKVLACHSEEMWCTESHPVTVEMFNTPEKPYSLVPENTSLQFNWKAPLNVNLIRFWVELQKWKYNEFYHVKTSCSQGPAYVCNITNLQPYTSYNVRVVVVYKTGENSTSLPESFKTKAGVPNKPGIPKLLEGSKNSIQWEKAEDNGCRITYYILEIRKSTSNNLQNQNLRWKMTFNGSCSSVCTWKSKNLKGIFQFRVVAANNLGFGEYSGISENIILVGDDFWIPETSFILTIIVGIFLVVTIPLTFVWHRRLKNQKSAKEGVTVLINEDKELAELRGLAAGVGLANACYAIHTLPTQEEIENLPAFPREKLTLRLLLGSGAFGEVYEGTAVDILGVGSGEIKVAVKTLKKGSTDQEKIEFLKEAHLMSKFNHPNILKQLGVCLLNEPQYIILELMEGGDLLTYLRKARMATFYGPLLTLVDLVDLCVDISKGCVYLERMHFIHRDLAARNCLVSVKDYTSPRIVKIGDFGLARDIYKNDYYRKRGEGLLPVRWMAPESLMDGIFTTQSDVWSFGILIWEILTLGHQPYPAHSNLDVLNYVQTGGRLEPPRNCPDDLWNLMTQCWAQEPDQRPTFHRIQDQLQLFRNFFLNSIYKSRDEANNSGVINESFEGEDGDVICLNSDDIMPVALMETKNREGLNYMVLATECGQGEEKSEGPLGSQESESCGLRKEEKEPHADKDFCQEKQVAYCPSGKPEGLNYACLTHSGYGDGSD
How it was run: as §1

[4] = tested on: Ba/F3 cells containing Ros1 wild-type protein + IL-3; experiment: Ba/F3-Ros1 cell proliferation counter-screen, wild-type protein in the presence of 10 ng/ml murine IL-3; type: cell-based; conditions: Mus musculus, BaF3, 24 h, read-out: BaF3-ROS1 + IL3 pIC50 (converted)
How it was run: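 Wild-type Ros1 Ba/F3 cells, cultured with 10 ng/ml murine IL-3, are exposed to compound for 24 h at 37 °C; Alamar Blue fluorescence after 4 h reports cell viability.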

[5] = counter-screen, wild-type, 10 ng/ml murine IL-3

Sequence of Ba/F3 cells containing Ros1 with a mutation at the gatekeeper residue (L2026M) (P08922 whole entry L2026M, form open): as the sequence (P08922 whole entry, stated change not applied) above, with L2026M counted along it

HCC-78 PROL pEC50 ([2]; HCC78 cells, 4 days, MTT) | ROS1 pIC50 (Ros1 enzyme) | melting point [°C] | EC50 ([2]; HCC78 cells, 4 days, MTT) [µM] | Structure (SMILES) | Ba/F3 Ros1 L2026M (-IL-3) pIC50 [1] | BaF3-ROS1-IL3 pIC50 [3] | IC50 (Ros1 enzyme) [µM] | CC50 [4, 5] [µM] | EC50 [2] [µM] | CC50 [4] [µM]
6.2 | 6.8 | 151 | – | CC(O)CN1CCn2nc(-c3ccncc3)c(-c3ccc(OCc4ccc(C(C)C)cc4)cc3)c2C1 (centres unmarked) [Compound 192] | 6.9 | 6.9 | – | – | – | –
6.4 | – | 227 | – | CC(C)c1cc(F)c(COc2ccc(-c3c(-c4ccncc4)nn4c3C(=O)N(CC(O)CO)CC4)cc2)c(F)c1 (centres unmarked) [Compound 95] | – | 6.8 | 0.158 | > 10 | – | –
– | – | – | 3.98 | CC(C)c1ccc(C(CO)Oc2ccc(-c3c(-c4ccncc4)nn4c3C(=O)NCC4)cc2)cc1 (centres unmarked) [Compound 146] | 7.6 | 6.2 | 2 | > 10 | – | –
– | – | – | 0.316 | CNCCc1cc(COc2ccc(-c3c(-c4ccncc4)nn4c3C(=O)N(CCO)CC4)cc2)ccc1C(C)C [Compound 235] | 6.5 | 6.7 | 0.0251 | > 10 | – | –
– | – | – | 2 | O=C1c2c(-c3ccc(OCc4ccc(C5CC5)nc4)cc3)c(-c3ccncc3)nn2CCN1CC(O)CO (centres unmarked) [Compound 140] | 5.8 | 6.4 | 0.251 | > 10 | – | –
– | – | – | 0.126 | CNCCc1cc(COc2ccc(-c3c(-c4ccncc4)nn4c3C(=O)N(C)CC4)cc2)ccc1C(C)C [Compound 236] | 7.4 | 7.6 | 0.0158 | 3.98 | – | –
– | – | – | 0.398 | O=C1c2c(-c3ccc(OCc4ccc(C5CC5)nc4)cc3F)c(-c3ccncc3)nn2CCN1CC(O)CO (centres unmarked) [Compound 208] | 6.3 | 6.8 | 0.0631 | > 10 | – | –
– | – | – | 0.501 | CC(C)c1ccc(COc2ccc(-c3c(-c4ccncc4)nn4c3C(=O)NCC4)cc2)cc1CN [Compound 86] | 6.9 | 7.2 | 0.01 | > 10 | – | –
– | – | – | 0.2 | CC(=O)OC(C)CN1CCn2nc(-c3ccncc3)c(-c3ccc(OCc4ccc(C(C)C)cc4)cc3)c2C1=O (centres unmarked) [Compound 69] | <5 | 7.4 | 0.0631 | > 10 | – | –

More lines, now with the values behind:

Structure (SMILES) | HCC-78 PROL pEC50 ([2]; HCC78 cells, 4 days, MTT) | ROS1 pIC50 (Ros1 enzyme) | melting point [°C] | EC50 ([2]; HCC78 cells, 4 days, MTT) [µM] | Ba/F3 Ros1 L2026M (-IL-3) pIC50 [1] | BaF3-ROS1-IL3 pIC50 [3] | IC50 (Ros1 enzyme) [µM] | CC50 [4, 5] [µM] | EC50 [2] [µM] | CC50 [4] [µM]
CC(C)c1ccc(COc2ccc(-c3c(-c4ccncc4)nn4c3C(=O)N(C(C)CO)CC4)cc2)cc1 (single isomer, unassigned) [Compound 38] | 7.3 | – | 144 | – | 7.5 | 7.9 | 0.0126 | – | – | –
CC(C)c1ccc(COc2ccc(-c3c(-c4ccncc4)nn4c3C(=O)NCC4)cc2)cc1OCCO [Compound 89] | – | – | – | – | 7.1 | 7.6 | 0.0316 | – | 0.2 | > 10
CC(CO)c1ccc(COc2ccc(-c3c(-c4ccncc4)nn4c3C(=O)N(CCO)CC4)cc2)cc1 (centres unmarked) [Compound 128] | – | – | – | – | 6.2 | 6.6 | 1.26 | – | 1 | > 10
CC(C)c1ccc(COc2cc(F)c(-c3c(-c4ccncc4)nn4c3C(=O)NCC4)cc2F)cc1 [Compound 14] | – | – | – | – | 8.2 | 7.8 | 0.00631 | – | < 0.0316 | > 10
CC(C)c1ccc(COc2ccc(-c3c(-c4ccncc4)nn4c3C(=O)N(CCNCC(F)(F)F)CC4)cc2)cc1 [Compound 62] | – | – | – | – | 6.6 | 7.0 | 0.2 | – | 0.501 | > 10
CNC(=O)CN1CCn2nc(-c3ccncc3)c(-c3ccc(OCc4ccc(C(C)C)cc4)cc3F)c2C1 [Compound 209] | – | – | – | – | 7.5 | 7.5 | 0.0631 | – | 0.501 | 5.01
CC(C)c1ccc(COc2cc(F)c(-c3c(-c4ccncc4)nn4c3C(=O)N(CCO)CC4)cc2F)cc1 [Compound 203] | – | – | – | – | 8.0 | 8.2 | 0.00398 | – | 0.01 | > 10
CC(C)c1ccc(COc2ccc(-c3c(-c4ccncc4)nn4c3C(=O)N(CC3CNC(=O)O3)CC4)cc2)cc1 (centres unmarked) [Compound 56] | – | – | – | – | 7.0 | 7.5 | 0.0398 | – | 0.126 | > 10
CC(C)c1ccc(COc2ccc(-c3c(-c4ccncc4)nn4c3C(=O)NCC4)cc2)cc1CC(O)CO (centres unmarked) [Compound 91] | – | – | – | – | 6.6 | 7.3 | 0.0316 | – | 0.0631 | > 10
CC(C)c1ccc(COc2ccc(-c3c(-c4ccncn4)nn4c3C(=O)N(CCOCCO)CC4)cc2)cc1 [Compound 162] | – | – | – | – | 7.1 | 7.2 | 0.0794 | – | 0.398 | > 10
CC(C)c1ccc(COc2ccc(-c3c(-c4ccncc4)nn4c3C(=O)N(C(C)CO)CC4)cc2)cc1 (single isomer, unassigned) [Compound 39] | 6.8 | – | – | – | 7.0 | 7.3 | 0.0794 | > 10 | – | –
CC(C)c1ccc(COc2c(F)cc(-c3c(-c4ccncc4)nn4c3C(=O)NCC4)cc2F)cc1 [Compound 15] | – | – | – | – | 7.5 | 7.5 | 0.0398 | – | 0.0501 | > 10
CNCCc1cc(COc2ccc(-c3c(-c4ccncc4)nn4c3C(=O)NCC4)cc2)ccc1C(C)C [Compound 234] | – | – | – | – | 6.7 | 7.1 | 0.02 | – | 0.126 | > 10

Source: US10280170B2, “Substituted 4,5,6,7-tetrahydro-pyrazolo[1,5-a]pyrazine derivatives and 5,6,7,8-tetrahydro-4H-pyrazolo[1,5-a][1,4]diazepine derivatives as Ros1 inhibitors” (Janssen Pharmaceutica NV, priority 2014, dated 2019)
